Data on 13 compounds can be found in ChEMBL document CHEMBL4052803, “Synthesis and anti-tumor evaluation of panaxadiol halogen-derivatives” (Bioorg Med Chem Lett, 2017).

Each structure is given as a SMILES string.

The test system of one assay is HCT-116. In words: Antiproliferative activity against human HCT116 cells after 48 hrs by MTT assay. Type of assay: functional, cell-based. As to conditions: HCT-116, 48 h. On the technique in general: Formazan colour is commonly taken as a measure of viable cells.
A further assay relates to H9c2. In words: Antiproliferative activity against rat H9c2 cells after 48 hrs by MTT assay. As to conditions: H9c2, 48 h. It is filed as cell-based.
The subject of another assay is SW480. In words: Antiproliferative activity against human SW480 cells after 48 hrs by MTT assay. As to conditions: SW480, 48 h. Type of assay: functional, cell-based.
The test system of another assay is BGC-823. In words: Antiproliferative activity against human BGC823 cells after 48 hrs by MTT assay. It is filed as functional, cell-based. To be noted: BGC-823, 48 h.
Assay [1] in a line: Antiproliferative activity against HHDPC cells after 48 hrs by MTT assay. It is filed as cell-based. As to conditions: Homo sapiens.
For the next assay, the system named is GES1. In words: Antiproliferative activity against human GES-1 cells after 48 hrs by MTT assay. It is filed as cell-based. To be noted: GES1, 48 h.

With `CC1(C)CCC[C@@](C)([C@H]2CC[C@]3(C)[C@@H]2[C@H](O)C[C@@H]2[C@@]4(C)CC[C@H](O)C(C)(C)[C@@H]4CC[C@]23C)O1`, the IC50 – broadly, the concentration that inhibits the measured activity by half – is > 100 µM in the assay with HCT-116; 214 µM with H9c2; 73.4 µM in the assay with SW480; 80.1 µM in the assay with BGC-823; 141 µM in assay [1]; 116 µM in the assay on GES1.
For the compound `CC(C)(CCC[C@@]1(C)O[C@@H]2C[C@@H]3[C@@]4(C)CC[C@H](OC(=O)CCl)C(C)(C)[C@@H]4CC[C@@]3(C)[C@]3(C)CC[C@H]1[C@@H]23)OC(=O)CCl`, the IC50 with HCT-116 is 42.3 µM; in the assay on H9c2, 281 µM; in the assay on SW480 it was 30.4 µM; in the assay with BGC-823, > 100 µM; in assay [1], 100 µM; in the assay with GES1, 125 µM.
On to `C/C(=C\CCC(C)(C)O)[C@H]1CC[C@]2(C)[C@@H]1[C@H](OC(=O)CBr)C[C@@H]1[C@@]3(C)CC[C@H](O)C(C)(C)[C@@H]3CC[C@]12C`, for which the IC50 in the assay on HCT-116 worked out at 5.34 µM; with H9c2 it was 48.8 µM; in the assay on SW480 it was 0.118 µM; with BGC-823 it was 0.622 µM; in assay [1] it was 36.4 µM; with GES1, 26.1 µM.
For the compound `CC(C)=CC/C=C(\C)[C@H]1CC[C@]2(C)C1=CC[C@@H]1[C@@]3(C)CC[C@H](OC(=O)CBr)C(C)(C)[C@@H]3CC[C@]12C`, the 50% inhibitory concentration (IC50) in the assay with HCT-116 is 3.59 µM; with H9c2, 131 µM; in the assay on SW480, 39.4 µM; in assay [1] it was 90.6 µM; in the assay on GES1 it was 77.6 µM.
In the case of `CC(C)=CC/C=C(\C)[C@H]1CC[C@]2(C)[C@@H]1[C@H](Br)C[C@@H]1[C@@]3(C)CC[C@H](OC(=O)CBr)C(C)(C)[C@@H]3CC[C@]12C`, the IC50 with HCT-116 was found to be 58.1 µM; with H9c2 it was 250 µM; with SW480 it was 18 µM; in the assay with BGC-823 it was 95 µM; in assay [1], 157 µM; with GES1 it was 121 µM.
For `CC1(C)CCC[C@](C)([C@H]2CC[C@]3(C)[C@@H]2[C@H](OC(=O)CBr)C[C@@H]2[C@@]4(C)CC[C@H](OC(=O)CBr)C(C)(C)[C@@H]4CC[C@]23C)O1`, the half-maximal inhibitory concentration (IC50) in the assay on HCT-116 came out at 3.86 µM; in the assay with H9c2, 158 µM; in the assay with SW480, 15.2 µM; in the assay on BGC-823, 15.6 µM; in assay [1], 140 µM; in the assay with GES1, 99.4 µM.
For the compound `CC(C)=CC/C=C(\C)[C@H]1CC[C@]2(C)[C@@H]1[C@H](OC(=O)CCl)C[C@@H]1[C@@]3(C)CC[C@H](OC(=O)CCl)C(C)(C)[C@@H]3CC[C@]12C`, the 50% inhibitory concentration (IC50) in the assay on HCT-116 is 12.6 µM; in the assay with H9c2, 180 µM; with SW480, 13.7 µM; in the assay with BGC-823, > 100 µM; in assay [1], 89.5 µM; in the assay on GES1 it was 100 µM.
With `CC1(C)CCC[C@](C)([C@H]2CC[C@]3(C)[C@@H]2[C@H](OC(=O)CCl)C[C@@H]2[C@@]4(C)CC[C@H](OC(=O)CCl)C(C)(C)[C@@H]4CC[C@]23C)O1`, the concentration for half-maximal inhibition (IC50) in the assay on HCT-116 was > 100 µM; with H9c2, > 500 µM; in the assay with SW480, > 100 µM; in the assay with BGC-823, > 100 µM; in assay [1] it was 226 µM; with GES1, 180 µM.
On to `C/C(=C\CCC(C)(C)O)[C@H]1CC[C@]2(C)[C@@H]1[C@H](OC(=O)CBr)C[C@@H]1[C@@]3(C)CC[C@H](OC(=O)CBr)C(C)(C)[C@@H]3CC[C@]12C`, for which the IC50 stood at 50.9 µM in the assay with HCT-116; 36.6 µM with H9c2; 1.22 µM in the assay on SW480; 1.08 µM in the assay with BGC-823; 42.1 µM in assay [1]; 35.1 µM in the assay on GES1.
`C/C(=C\CCC(C)(C)OC(=O)CBr)[C@H]1CC[C@]2(C)C1=CC[C@@H]1[C@@]3(C)CC[C@H](OC(=O)CBr)C(C)(C)[C@@H]3CC[C@]12C`: the 50% inhibitory concentration (IC50) was determined as 7.14 µM in the assay with HCT-116; 161 µM in the assay with H9c2; 31.4 µM with SW480; 82.1 µM in the assay on BGC-823; 200 µM in assay [1]; 142 µM in the assay on GES1.
On to `C/C(=C\CCC(C)(C)O)[C@H]1CC[C@]2(C)[C@@H]1[C@H](OC(=O)CCl)C[C@@H]1[C@@]3(C)CC[C@H](OC(=O)CCl)C(C)(C)[C@@H]3CC[C@]12C`, for which the half-maximal inhibitory concentration (IC50) in the assay on HCT-116 was 8.33 µM; in the assay on H9c2 it was 86.2 µM; in the assay with SW480, 5.49 µM; with BGC-823, 4.28 µM; in assay [1], 61.9 µM; with GES1, 110 µM.
Take `CC1(C)CCC[C@@](C)([C@H]2CC[C@]3(C)[C@@H]2[C@H](O)C[C@@H]2[C@@]4(C)CC[C@H](OC(=O)CBr)C(C)(C)[C@@H]4CC[C@]23C)O1`: the half-maximal inhibitory concentration (IC50) with H9c2 worked out at 120 µM; in the assay on SW480 it was 14.2 µM; in the assay with BGC-823, 14.7 µM; in assay [1] it was 118 µM; with GES1, 115 µM.
For the compound `CC1(C)CCC[C@@](C)([C@H]2CC[C@]3(C)[C@@H]2[C@H](O)C[C@@H]2[C@@]4(C)CC[C@H](OC(=O)CCl)C(C)(C)[C@@H]4CC[C@]23C)O1`, the IC50 in the assay on HCT-116 is 42.3 µM; in the assay on H9c2 it was 121 µM; in the assay on SW480, 15.8 µM; in the assay on BGC-823, 17.1 µM; in assay [1], 120 µM; in the assay with GES1 it was 107 µM.
